Results on one compound are retold here after publication PMC11794477 (Nature Communications, 2025).

The target in test [1] is T1, Fetal Liver Tyrosine Kinase 3 (FLT3) (Homo sapiens, UniProt P36888).
T1 sequence (P36888 27-993): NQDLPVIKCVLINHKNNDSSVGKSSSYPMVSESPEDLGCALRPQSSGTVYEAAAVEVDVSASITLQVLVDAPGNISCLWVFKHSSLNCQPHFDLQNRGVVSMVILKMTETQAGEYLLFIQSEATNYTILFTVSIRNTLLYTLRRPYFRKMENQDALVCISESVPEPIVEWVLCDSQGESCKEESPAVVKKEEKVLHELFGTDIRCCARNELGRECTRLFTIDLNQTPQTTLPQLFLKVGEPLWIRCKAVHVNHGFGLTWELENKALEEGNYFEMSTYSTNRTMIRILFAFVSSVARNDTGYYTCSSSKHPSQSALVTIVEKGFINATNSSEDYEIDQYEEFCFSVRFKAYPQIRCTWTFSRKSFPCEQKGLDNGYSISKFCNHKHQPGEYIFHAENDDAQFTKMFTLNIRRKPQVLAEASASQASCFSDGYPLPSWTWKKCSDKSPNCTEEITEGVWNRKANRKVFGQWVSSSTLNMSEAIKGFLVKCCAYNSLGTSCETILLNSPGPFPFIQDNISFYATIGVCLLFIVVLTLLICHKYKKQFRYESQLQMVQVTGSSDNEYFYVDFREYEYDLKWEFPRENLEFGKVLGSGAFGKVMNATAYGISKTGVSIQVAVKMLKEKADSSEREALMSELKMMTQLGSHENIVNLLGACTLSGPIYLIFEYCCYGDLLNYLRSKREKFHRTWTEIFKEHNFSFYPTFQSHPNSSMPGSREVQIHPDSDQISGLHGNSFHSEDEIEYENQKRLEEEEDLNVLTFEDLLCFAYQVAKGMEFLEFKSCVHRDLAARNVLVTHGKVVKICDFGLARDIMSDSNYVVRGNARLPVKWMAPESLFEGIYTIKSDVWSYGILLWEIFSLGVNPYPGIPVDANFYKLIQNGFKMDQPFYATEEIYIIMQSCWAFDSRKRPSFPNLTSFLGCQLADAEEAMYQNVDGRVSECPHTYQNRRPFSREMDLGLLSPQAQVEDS
Description: SelectScreen kinase profiling at ATP Km, with dose-response follow-up. Type of test: biochemical.

In test [2] the target is T2, Discoidin Domain Receptor Tyrosine Kinase 2 (DDR2 N456S) (Homo sapiens, UniProt Q16832, N456S).
T2 sequence (Q16832 22-855 N456S): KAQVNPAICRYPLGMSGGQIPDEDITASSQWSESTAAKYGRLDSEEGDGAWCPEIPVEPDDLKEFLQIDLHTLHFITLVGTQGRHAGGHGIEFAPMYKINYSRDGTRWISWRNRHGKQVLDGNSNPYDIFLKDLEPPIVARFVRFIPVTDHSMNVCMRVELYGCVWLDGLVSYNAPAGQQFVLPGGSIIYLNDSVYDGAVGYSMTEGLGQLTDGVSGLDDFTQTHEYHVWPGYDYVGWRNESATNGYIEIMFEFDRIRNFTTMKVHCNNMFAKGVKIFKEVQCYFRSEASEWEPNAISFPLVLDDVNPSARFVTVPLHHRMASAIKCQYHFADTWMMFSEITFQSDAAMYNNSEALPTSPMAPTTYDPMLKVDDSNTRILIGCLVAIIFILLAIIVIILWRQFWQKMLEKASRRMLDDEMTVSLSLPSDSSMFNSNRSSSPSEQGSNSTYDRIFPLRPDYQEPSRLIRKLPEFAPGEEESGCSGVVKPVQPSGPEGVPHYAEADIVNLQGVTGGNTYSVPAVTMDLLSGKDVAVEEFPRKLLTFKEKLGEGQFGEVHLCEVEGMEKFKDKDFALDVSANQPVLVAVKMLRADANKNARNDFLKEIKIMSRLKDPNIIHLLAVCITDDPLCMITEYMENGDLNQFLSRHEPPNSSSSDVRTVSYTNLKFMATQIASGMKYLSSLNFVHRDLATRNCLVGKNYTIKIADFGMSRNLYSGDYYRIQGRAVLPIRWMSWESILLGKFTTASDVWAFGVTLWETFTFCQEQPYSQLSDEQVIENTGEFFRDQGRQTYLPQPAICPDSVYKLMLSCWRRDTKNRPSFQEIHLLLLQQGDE
Description: SelectScreen kinase profiling at […] CT-179, ATP at Km. The test is classed as biochemical.

Test [3] concerns the target T3, OLIG2 (Homo sapiens, UniProt Q13516).
T3 sequence (Q13516 1-323): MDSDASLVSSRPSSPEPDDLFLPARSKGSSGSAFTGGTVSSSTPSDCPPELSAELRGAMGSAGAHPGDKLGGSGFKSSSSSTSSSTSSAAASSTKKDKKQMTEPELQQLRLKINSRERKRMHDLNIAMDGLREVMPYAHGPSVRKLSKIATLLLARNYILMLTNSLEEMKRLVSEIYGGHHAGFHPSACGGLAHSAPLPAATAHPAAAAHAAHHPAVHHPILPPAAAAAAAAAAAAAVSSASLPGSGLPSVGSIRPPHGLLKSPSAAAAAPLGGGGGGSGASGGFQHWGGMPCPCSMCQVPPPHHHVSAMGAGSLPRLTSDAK
Type of test: cell-based.

pIC50: −log10 of the molar value.

As to `Cc1cc(NCCCN(C)C)nc(NC(=O)Nc2ccc(Cl)c(Cl)c2)n1` [CT-179], the negative logarithm of the IC50 (pIC50) in test [1] is 7.70; in test [3], 5.90. In test [2], the “% inhibition at 1 μM” value was found to be 87.
